# In ChEMBL document CHEMBL4308841, “Synthesis, in vitro antiproliferative activity, and kinase inhibitory effects of pyrazole-containing diarylureas and diarylamides” (Eur J Med Chem, 2018):
# Key:
# SK-OV-3 = assay: Growth inhibition of human SKOV3 cells assessed as cell growth at 10 uM incubated for 48 hrs by sulforhodamine B assay relative to control; type: functional; conditions: SK-OV-3, 48 h, read-out: Activity
# SF-268 = assay: Growth inhibition of human SF268 cells assessed as cell growth at 10 uM incubated for 48 hrs by sulforhodamine B assay relative to control; type: functional; conditions: SF-268, 48 h, read-out: Activity
# Hs-578T = assay: Growth inhibition of human Hs578T cells assessed as cell growth at 10 uM incubated for 48 hrs by sulforhodamine B assay relative to control; type: functional; conditions: read-out: Activity
# LOX IMVI = assay: Growth inhibition of human LOXIMVI cells assessed as cell growth at 10 uM incubated for 48 hrs by sulforhodamine B assay relative to control; type: functional; conditions: read-out: Activity
# UO-31 = assay: Growth inhibition of human UO31 cells assessed as cell growth at 0.01 uM incubated for 48 hrs by sulforhodamine B assay relative to control; type: functional; conditions: UO-31, 48 h, read-out: Activity
# M14 [1] = assay: Growth inhibition of human M14 cells assessed as cell growth at 0.01 uM incubated for 48 hrs by sulforhodamine B assay relative to control; type: functional; conditions: M14, 48 h, read-out: Activity
# K562 = assay: Growth inhibition of human K562 cells assessed as cell growth at 10 uM incubated for 48 hrs by sulforhodamine B assay relative to control; type: functional; conditions: K562, 48 h, read-out: Activity
# OVCAR-4 [2] = assay: Growth inhibition of human OVCAR4 cells assessed as cell growth at 10 uM incubated for 48 hrs by sulforhodamine B assay relative to control; type: functional; conditions: OVCAR-4, 48 h, read-out: Activity
# OVCAR-4 [3] = assay: Growth inhibition of human OVCAR4 cells incubated for 48 hrs by sulforhodamine B assay; type: functional, cell-based; conditions: OVCAR-4, 48 h
# RPMI-8226 = assay: Growth inhibition of human RPMI8226 cells assessed as cell growth at 10 uM incubated for 48 hrs by sulforhodamine B assay relative to control; type: functional; conditions: RPMI-8226, 48 h, read-out: Activity
# SR = assay: Growth inhibition of human SR cells assessed as cell growth at 10 uM incubated for 48 hrs by sulforhodamine B assay relative to control; type: functional; conditions: read-out: Activity
# ACHN [4] = assay: Growth inhibition of human ACHN cells incubated for 48 hrs by sulforhodamine B assay; type: functional, cell-based
# M14 [5] = assay: Growth inhibition of human M14 cells assessed as cell growth at 10 uM incubated for 48 hrs by sulforhodamine B assay relative to control; type: functional; conditions: M14, 48 h, read-out: Activity
# HCC 2998 [6] = assay: Growth inhibition of human HCC2998 cells assessed as cell growth at 10 uM incubated for 48 hrs by sulforhodamine B assay relative to control; type: functional; conditions: HCC 2998, 48 h, read-out: Activity
# SF-295 = assay: Growth inhibition of human SF295 cells assessed as cell growth at 10 uM incubated for 48 hrs by sulforhodamine B assay relative to control; type: functional; conditions: SF-295, 48 h, read-out: Activity
# MDA-MB-468 [7] = assay: Growth inhibition of human MDA-MB-468 cells assessed as cell growth at 10 uM incubated for 48 hrs by sulforhodamine B assay relative to control; type: functional; conditions: MDA-MB-468, 48 h, read-out: Activity
# HOP-62 = assay: Growth inhibition of human HOP62 cells assessed as cell growth at 10 uM incubated for 48 hrs by sulforhodamine B assay relative to control; type: functional; conditions: HOP-62, 48 h, read-out: Activity
# HCT-15 = assay: Growth inhibition of human HCT15 cells assessed as cell growth at 10 uM incubated for 48 hrs by sulforhodamine B assay relative to control; type: functional; conditions: HCT-15, 48 h, read-out: Activity
# U-251 [8] = assay: Growth inhibition of human U251 cells incubated for 48 hrs by sulforhodamine B assay; type: functional, cell-based; conditions: U-251, 48 h
# MDA-MB-435 = assay: Growth inhibition of human MDA-MB-435 cells assessed as cell growth at 10 uM incubated for 48 hrs by sulforhodamine B assay relative to control; type: functional; conditions: MDA-MB-435, 48 h, read-out: Activity
# Malme-3M = assay: Growth inhibition of human MALME-3M cells assessed as cell growth at 10 uM incubated for 48 hrs by sulforhodamine B assay relative to control; type: functional; conditions: read-out: Activity
# ACHN [9] = assay: Growth inhibition of human ACHN cells assessed as cell growth at 100 uM incubated for 48 hrs by sulforhodamine B assay relative to control; type: functional; conditions: read-out: Activity
# U-251 [10] = assay: Growth inhibition of human U251 cells assessed as cell growth at 1 uM incubated for 48 hrs by sulforhodamine B assay relative to control; type: functional; conditions: U-251, 48 h, read-out: Activity
# UACC-62 = assay: Growth inhibition of human UACC62 cells assessed as cell growth at 0.1 uM incubated for 48 hrs by sulforhodamine B assay relative to control; type: functional; conditions: UACC-62, 48 h, read-out: Activity
# SNB-19 = assay: Growth inhibition of human SNB19 cells assessed as cell growth at 10 uM incubated for 48 hrs by sulforhodamine B assay relative to control; type: functional; conditions: SNB-19, 48 h, read-out: Activity
# MDA-MB-468 [11] = assay: Growth inhibition of human MDA-MB-468 cells assessed as cell growth at 100 uM incubated for 48 hrs by sulforhodamine B assay relative to control; type: functional; conditions: MDA-MB-468, 48 h, read-out: Activity
# UACC-257 = assay: Growth inhibition of human UACC257 cells assessed as cell growth at 10 uM incubated for 48 hrs by sulforhodamine B assay relative to control; type: functional; conditions: UACC-257, 48 h, read-out: Activity
# NCI/ADR-RES = assay: Growth inhibition of human NCI/ADR-RES cells assessed as cell growth at 10 uM incubated for 48 hrs by sulforhodamine B assay relative to control; type: functional; conditions: read-out: Activity
# HL-60(TB) = assay: Growth inhibition of human HL-60(TB) cells assessed as cell growth at 10 uM incubated for 48 hrs by sulforhodamine B assay relative to control; type: functional; conditions: HL-60, 48 h, read-out: Activity
# HCC 2998 [12] = assay: Growth inhibition of human HCC2998 cells incubated for 48 hrs by sulforhodamine B assay; type: functional, cell-based; conditions: HCC 2998, 48 h
# OVCAR-8 = assay: Growth inhibition of human OVCAR8 cells assessed as cell growth at 10 uM incubated for 48 hrs by sulforhodamine B assay relative to control; type: functional; conditions: OVCAR-8, 48 h, read-out: Activity
# [13] = read-out: LC50 (the source's name)
# [14] = read-out: pLC50 (the source's name) (converted)
structure (smiles),measurement,setting,value
O=C(Nc1cccc(-n2cc(-c3ccncc3)c(-c3cc(O)cc(Cl)c3)n2)c1)Nc1ccc(Cl)c(Cl)c1,growth at 10 µM,SK-OV-3,13.2%
same,growth at 10 µM,SF-268,16.2%
same,growth at 10 µM,Hs-578T,-6.42%
same,growth at 10 µM,LOX IMVI,-84.7%
same,growth at 0.01 µM,UO-31,93%
same,growth at 0.01 µM,M14 [1],99%
same,growth at 10 µM,K562,1.06%
same,growth at 10 µM,OVCAR-4 [2],10.7%
same,GI50,OVCAR-4 [3]; read-out: GI50,2.9 µM
same,CC50,OVCAR-4 [3]; [13],> 100 µM
same,GI50,OVCAR-4 [3]; read-out: pGI50 (converted),2.95 µM
same,CC50,OVCAR-4 [3]; [14],> 100 µM
same,growth at 10 µM,RPMI-8226,-15.3%
same,growth at 10 µM,SR,-21.4%
same,GI50,ACHN [4]; read-out: GI50,2.21 µM
same,CC50,ACHN [4]; [13],> 100 µM
same,TGI,ACHN [4]; read-out: TGI,67.1 µM
same,GI50,ACHN [4]; read-out: pGI50 (converted),2.19 µM
same,CC50,ACHN [4]; [14],> 100 µM
same,TGI,ACHN [4]; read-out: pTGI (converted),8.91 µM
same,growth at 10 µM,M14 [5],-69.2%
same,growth at 10 µM,HCC 2998 [6],0.57%
same,growth at 10 µM,SF-295,-50.5%
same,growth at 10 µM,MDA-MB-468 [7],-1.88%
same,growth at 10 µM,HOP-62,-44.2%
same,growth at 10 µM,HCT-15,-25.3%
same,IC50,U-251 [8],1.44 µM
same,GI50,U-251 [8]; read-out: GI50,1.44 µM
same,CC50,U-251 [8]; [13],5.51 µM
same,TGI,U-251 [8]; read-out: TGI,30 µM
same,GI50,U-251 [8]; read-out: pGI50 (converted),1.45 µM
same,CC50,U-251 [8]; [14],6.61 µM
same,TGI,U-251 [8]; read-out: pTGI (converted),3.09 µM
same,growth at 10 µM,MDA-MB-435,-33.3%
same,growth at 10 µM,Malme-3M,-35.1%
same,growth at 100 µM,ACHN [9],-33%
same,growth at 1 µM,U-251 [10],74%
same,growth at 0.1 µM,UACC-62,99%
same,growth at 10 µM,SNB-19,30.8%
same,growth at 100 µM,MDA-MB-468 [11],-17%
same,growth at 10 µM,UACC-257,-70.7%
same,growth at 10 µM,NCI/ADR-RES,12.8%
same,growth at 10 µM,HL-60(TB),-23.4%
same,GI50,HCC 2998 [12]; read-out: GI50,2.93 µM
same,CC50,HCC 2998 [12]; [13],7.51 µM
same,TGI,HCC 2998 [12]; read-out: TGI,89.9 µM
same,GI50,HCC 2998 [12]; read-out: pGI50 (converted),2.95 µM
same,CC50,HCC 2998 [12]; [14],77.6 µM
same,TGI,HCC 2998 [12]; read-out: pTGI (converted),8.91 µM
same,growth at 10 µM,OVCAR-8,-14.8%
